In the supplement of paper PMC7661543 one finds relative cell number data, which are given here for six compounds.

± gives the standard deviation of the averaged measurements.

Common to all, as to experiment: relative cell number vs DMSO control (72 h) (% of DMSO); higher = less growth inhibition (more cells)
Details in all cases: sgRNA knockout: sgNT

The test system of assay [1] is BT-20. How it is done:
(§1)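 QMAP-Seq: a pool of 5 breast cancer cell lines (ZR-75-1, SKBR3, HCC-38, MDA-MB-231, BT-20), each carrying 12 doxycycline-inducible Cas9 sgRNA perturbations (11 knockouts plus non-targeting sgNT), was treated with compounds for 72 h at four 10-fold doses (10 nM-10 uM or 1 nM-1 uM range). Barcodes were amplified and sequenced, and cell number was interpolated from 293T spike-in standard curves. The result is expressed as % of the median of DMSO wells. Two biological replicates.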

Assay [2] relates to HCC-38. How it is done: as §1
The subject of assay [3] is MDA-MB-231. How it is done:
as §1

Assay [4] has as its system SKBR3. On the procedure:
as §1

In assay [5] the test system is ZR-75-1. How it is done:
as §1

Consider `CCOC(=O)CCNc1cc(N2CCc3ccccc3CC2)nc(-c2ccccn2)n1` [GSKJ4], for which the relative cell number in assay [1] (10 nM) came out at 86.2 ± 8; in assay [1] (100 nM) it was 105 ± 1.5; in assay [1] (1000 nM) it was 122 ± 12; in assay [1] (10000 nM) it was 52.7 ± 5.3; in assay [2] (10 nM), 103 ± 7.2; in assay [2] (100 nM), 98.1 ± 1.7. In addition, the relative cell number turned out to be 96.1 ± 22 in assay [2] (1000 nM); 60.8 ± 9.7 in assay [2] (10000 nM); 98.3 ± 30 in assay [3] (10 nM); 123 ± 22 in assay [3] (100 nM); 96.8 ± 44 in assay [3] (1000 nM); 34 ± 7.1 in assay [3] (10000 nM). For the same compound, the relative cell number in assay [4] (10 nM) is 94.1 ± 37; in assay [4] (100 nM), 104 ± 3.1; in assay [4] (1000 nM), 101 ± 9.6; in assay [4] (10000 nM), 88.8 ± 34; in assay [5] (10 nM), 125 ± 56; in assay [5] (100 nM), 113 ± 3.1. Further, the relative cell number in assay [5] (1000 nM) was found to be 110 ± 7.2; in assay [5] (10000 nM), 33.4 ± 1.8.

`CC(C)c1cc(-c2n[nH]c(=O)n2-c2ccc3c(ccn3C)c2)c(O)cc1O` [Ganetespib]: the relative cell number in assay [1] (1 nM) was 96.6 ± 15; in assay [1] (10 nM), 89.9 ± 2.6; in assay [1] (100 nM) it was 44.8 ± 0.61; in assay [1] (1000 nM), 48.5 ± 11; in assay [2] (1 nM) it was 91 ± 2.5; in assay [2] (10 nM), 94.7 ± 2.2. Moreover, the relative cell number in assay [2] (100 nM) turned out to be 26.6 ± 1.2; in assay [2] (1000 nM), 18.5 ± 2.5; in assay [3] (1 nM), 88.2 ± 21; in assay [3] (10 nM), 88.7 ± 21; in assay [3] (100 nM) it was 13.7 ± 1.3; in assay [3] (1000 nM), 11.4 ± 7.9. In addition, the relative cell number came out at 73.1 ± 28 in assay [4] (1 nM); 75.4 ± 13 in assay [4] (10 nM); 24.1 ± 5.2 in assay [4] (100 nM); 30.5 ± 9.4 in assay [4] (1000 nM); 96.883 ± 0.01 in assay [5] (1 nM); 83.6 ± 40 in assay [5] (10 nM). Further, the relative cell number worked out at 18 ± 1.4 in assay [5] (100 nM) and 27.2 ± 3.3 in assay [5] (1000 nM).

Turning to `COc1cc2ncnc(Nc3ccc(F)c(Cl)c3)c2cc1OCCCN1CCOCC1` [Gefitinib], the relative cell number was 95.4 ± 5.2 in assay [1] (10 nM); 80.8 ± 9.2 in assay [1] (100 nM); 86.3 ± 16 in assay [1] (1000 nM); 62.8 ± 13 in assay [1] (10000 nM); 84.4 ± 11 in assay [2] (10 nM); 105.03 ± 0.0072 in assay [2] (100 nM). Further, the relative cell number came out at 105 ± 18 in assay [2] (1000 nM); 92.41 ± 0.25 in assay [2] (10000 nM); 83.3 ± 31 in assay [3] (10 nM); 76.2 ± 23 in assay [3] (100 nM); 81.2 ± 19 in assay [3] (1000 nM); 108 ± 12 in assay [3] (10000 nM). In addition, the relative cell number was found to be 78.7 ± 18 in assay [4] (10 nM); 95.3 ± 31 in assay [4] (100 nM); 48.5 ± 17 in assay [4] (1000 nM); 36.6 ± 7.8 in assay [4] (10000 nM); 101 ± 13 in assay [5] (10 nM); 116 ± 49 in assay [5] (100 nM). Also, the figures for the relative cell number in assay [5] (1000 nM) and in assay [5] (10000 nM) were 51.61 ± 0.097 and 44.4 ± 13, respectively.

As for `Nc1ccn([C@@H]2O[C@H](CO)[C@@H](O)C2(F)F)c(=O)n1` [Gemcitabine], the relative cell number in assay [1] (10 nM) was 68 ± 3.1; in assay [1] (100 nM) it was 34 ± 5.5; in assay [1] (1000 nM), 28.3 ± 5; in assay [1] (10000 nM), 23.9 ± 15; in assay [2] (10 nM), 20.2 ± 3.4; in assay [2] (100 nM), 10.5 ± 0.58. The relative cell number in assay [2] (1000 nM) came out at 12.9 ± 3.4; in assay [2] (10000 nM) it was 11.1 ± 3.8; in assay [3] (10 nM), 18.5 ± 3.2; in assay [3] (100 nM), 20.3 ± 7.1; in assay [3] (1000 nM), 15.6 ± 1.6; in assay [3] (10000 nM), 14 ± 3.5. Moreover, the relative cell number in assay [4] (10 nM) was found to be 26.2 ± 2.4; in assay [4] (100 nM), 7.58 ± 1.7; in assay [4] (1000 nM), 11.1 ± 5.8; in assay [4] (10000 nM), 14.1 ± 6.9; in assay [5] (10 nM), 36.6 ± 15; in assay [5] (100 nM), 26.4 ± 0.51. In addition, the relative cell number in assay [5] (1000 nM) was 33.9 ± 6; in assay [5] (10000 nM) it was 30.5 ± 2.7.

Consider `Cc1cc2c(C(C)C)c(O)c(O)c(C=O)c2c(O)c1-c1c(C)cc2c(C(C)C)c(O)c(O)c(C=O)c2c1O` [Gossypol], for which the relative cell number was found to be 96.2 ± 1.7 in assay [1] (10 nM); 80.1 ± 8.4 in assay [1] (100 nM); 113 ± 39 in assay [1] (1000 nM); 44.9 ± 2 in assay [1] (10000 nM); 96.4 ± 16 in assay [2] (10 nM); 91.6 ± 12 in assay [2] (100 nM). Further, the relative cell number in assay [2] (1000 nM) came to 107.2 ± 0.47; in assay [2] (10000 nM), 27 ± 1.4; in assay [3] (10 nM), 125 ± 38; in assay [3] (100 nM), 87.2 ± 6.4; in assay [3] (1000 nM) it was 103 ± 33; in assay [3] (10000 nM), 22.7 ± 7.3. Besides, the relative cell number was found to be 101.3 ± 0.15 in assay [4] (10 nM); 94.3 ± 8.1 in assay [4] (100 nM); 103 ± 7.4 in assay [4] (1000 nM); 24.6 ± 2.8 in assay [4] (10000 nM); 129 ± 19 in assay [5] (10 nM); 96 ± 13 in assay [5] (100 nM). The relative cell number in assay [5] (1000 nM) is 106 ± 54; in assay [5] (10000 nM), 26.9 ± 14.

As for `COc1cc2c(cc1-c1c(C)noc1C)ncc1[nH]c(=O)n([C@H](C)c3ccccn3)c12` [IBET151], the relative cell number was found to be 82.5 ± 2.4 in assay [1] (10 nM); 90.5 ± 39 in assay [1] (100 nM); 72.5 ± 0.91 in assay [1] (1000 nM); 49.4 ± 3.8 in assay [1] (10000 nM); 85.1 ± 6.5 in assay [2] (10 nM); 82.8 ± 13 in assay [2] (100 nM). Also, the relative cell number in assay [2] (1000 nM) is 60.2 ± 2.5; in assay [2] (10000 nM), 53.6 ± 3.3; in assay [3] (10 nM), 88.1 ± 9; in assay [3] (100 nM), 72.1 ± 3.6; in assay [3] (1000 nM), 42.4 ± 2; in assay [3] (10000 nM), 19 ± 15. For the same compound, the relative cell number in assay [4] (10 nM) was 64.9 ± 9; in assay [4] (100 nM) it was 88.5 ± 6.6; in assay [4] (1000 nM), 47.8 ± 1.4; in assay [4] (10000 nM), 31.9 ± 9.4; in assay [5] (10 nM), 65.6 ± 36; in assay [5] (100 nM) it was 104 ± 28. In addition, the values for the relative cell number in assay [5] (1000 nM) and in assay [5] (10000 nM) were 49 ± 4.5 and 37.5 ± 0.4, respectively.
